Experimental data reported in article PMC7571145, “Multistep Synthesis and In Vitro Anticancer Evaluation of 2-Pyrazolyl-Estradiol Derivatives, Pyrazolocoumarin-Estradiol Hybrids and Analogous Compounds” (Molecules, 2020).

Legend:
[1] = test system: MRC-5 fibroblasts; assay: MTT cytotoxicity assay on non-cancerous MRC-5 fibroblasts; format: cell-based; settings: 72 h; for primary growth inhibitory screen, cell viability, MRC-5 / effect on non-cancerous fibroblasts: 2.5 µM; for primary growth inhibitory screen, cell viability, MRC-5 / IC50: MTT; for primary growth inhibitory screen, cell viability, MRC-5: mean±SD, untreated control about 100; for IC50: Homo sapiens, MRC5, compounds 1-7 µM, mean ± SD, read-out: IC50 on MRC-5; for effect on non-cancerous fibroblasts: based on the heat map
Protocol: (§1) Cytotoxicity screens were performed to assess the in vitro anticancer activity of the synthesized A-ring-linked 2-pyrazoles of estradiol, the pyrazolocoumarin-estradiol hybrids, and their structurally simplified non-steroidal analogs on various cancerous cell lines such as MCF-7, PC-3, DU145, and HeLa and on non-cancerous MRC-5 fibroblasts. The 2-acetyl-phenol starting materials (4, 5, and 15) were also included for comparison. All compounds were applied in 2.5 µM concentration for 72 h. The obtained cell viability data were used to construct a heat map (Figure 2) in order to select compounds that exert cancer cell line-specific cytotoxicity. […] Furthermore, some compounds discriminated only DU145 cells and could eliminate these type of prostate cancer cells.
(§2) To understand structure-function relationships, we also included the structural analogs of the selected compounds, namely 7a (C-17 acetate of 8a), 8c (C-17 OH counterpart of 7c), and 9a (steroidal pair of 19a) into subsequent analyses. […] For this, compounds were applied on MCF-7, PC-3, DU145, and HeLa and on non-cancerous MRC-5 fibroblasts in various concentrations for 72 h or were treated with cisplatin at different concentrations. On the viability data, dose–response curves were fitted (Figure S1) and IC50 values were calculated accordingly (Table 3). In agreement with the primary cytotoxicity screen (Table S1), the obtained IC50 concentrations clearly indicated which compound was selectively effective on one or more cancer cell lines. […] Typically, acetylated steroidal pyrazoles were less favorable than deacetylated counterparts due to reduced cancer cell selectivity (7c, 10a).
(§3) To evaluate the in vitro pharmacological effects of the synthesized molecules, each compound was first dissolved in cell culture grade DMSO (Sigma) to a final concentration of 10 mM. Using MTT colorimetric assay, the cytotoxicity of these compounds was evaluated on cancerous (MCF-7, HeLa, DU145, PC-3) and non-cancerous (MRC-5) cell lines. Briefly, 5000 cells/well of each cell line were seeded in 96-well plates and were left to grow overnight in a 5% CO2 atmosphere at 37 °C. On the next day, cells were treated with each derivative separately, in case of the primary screen, or only with the selected compounds upon IC50 determination. Cells were incubated with the test compounds for 72 h in a 5% CO2 atmosphere at 37 °C. End point was measured by incubating cells for 1 h with 0.5 mg/mL of MTT reagent (Serva) dissolved in serum free culture medium. The formazan crystals formed by metabolically active cells were later dissolved in DMSO. Optical density of the obtained solutions was measured at 570 nm using a Synergy HTX plate reader. […] The analysis and conclusions were made based on three independent experiments. Normalized data were analyzed and the heat map was constructed using GraphPad Prism 7 software.

[2] = test system: MCF-7 cells; assay: MTT cytotoxicity assay on MCF-7 cells; format: cell-based; settings: for primary growth inhibitory screen, cell viability, MCF-7: 2.5 µM, 72 h, mean±SD, untreated control about 100; for IC50: Homo sapiens, MCF7, 72 h, compounds 1-7 µM, mean ± SD, read-out: IC50 on MCF-7
Protocol: as §1, §2, §3

[3] = test system: DU145 cells; assay: MTT cytotoxicity assay on DU145 prostate cancer cells; format: cell-based; settings: for primary growth inhibitory screen, cell viability, DU145: 2.5 µM, 72 h, mean±SD, untreated control about 100; for IC50: Homo sapiens, DU-145, 72 h, compounds 1-7 µM, mean ± SD, read-out: IC50 on DU145
Protocol: as §1, §2, §3

[4] = test system: PC-3 cells; assay: MTT cytotoxicity assay on PC-3 prostate cancer cells; format: cell-based; settings: for primary growth inhibitory screen, cell viability, PC-3: 2.5 µM, 72 h, mean±SD, untreated control about 100; for IC50: Homo sapiens, PC-3, 72 h, compounds 1-7 µM, mean ± SD, read-out: IC50 on PC-3
Protocol: as §1, §2, §3

[5] = test system: HeLa cells; assay: MTT cytotoxicity assay on HeLa cells; format: cell-based; settings: 72 h; for primary growth inhibitory screen, cell viability, HeLa: 2.5 µM, mean±SD, untreated control about 100; for IC50: Homo sapiens, HeLa, compounds 1-7 µM, mean ± SD, read-out: IC50 on HeLa
Protocol: as §1, §2, §3

Structure (SMILES): OCc1cn(-c2ccccc2)nc1-c1cc2c(cc1O)CCCC2 [Compound 18a, 3-(4′-(Hydroxymethyl)-1′-phenyl-1′H-pyrazol-3′-yl)-5,6,7,8-tetrahydro-2-naphthol]
- primary growth inhibitory screen, cell viability, MRC-5 [1]: ≥ 100±0.1
- primary growth inhibitory screen, cell viability, MCF-7 [2]: 98.0±7.1
- primary growth inhibitory screen, cell viability, DU145 [3]: 87.0±18.2
- melting point: 135 to 137 °C
- primary growth inhibitory screen, cell viability, PC-3 [4]: 91.5±12.9
- primary growth inhibitory screen, cell viability, HeLa [5]: ≥ 100±6.5

Structure (SMILES): CC(=O)O[C@H]1CC[C@H]2[C@@H]3CCc4cc(O)c(C(C)=O)cc4[C@H]3CC[C@]12C [Compound 4, 2-Acetyl-estra-1,3,5(10)-triene-3,17β-diol-17-acetate]
- primary growth inhibitory screen, cell viability, MRC-5 [1]: ≥ 100±6.6
- primary growth inhibitory screen, cell viability, MCF-7 [2]: 92.7±2.2
- primary growth inhibitory screen, cell viability, DU145 [3]: 94.2±8.6
- melting point: 200 to 202 °C
- primary growth inhibitory screen, cell viability, PC-3 [4]: 88.5±6.5
- primary growth inhibitory screen, cell viability, HeLa [5]: 90.0±4.3

Structure (SMILES): Cc1ccc(-n2cc(CO)c(-c3cc4c(cc3O)CC[C@@H]3[C@@H]4CC[C@]4(C)[C@@H](O)CC[C@@H]34)n2)cc1 [Compound 11b]
- primary growth inhibitory screen, cell viability, MRC-5 [1]: ≥ 100±2.2
- primary growth inhibitory screen, cell viability, MCF-7 [2]: 80.4±2.9
- primary growth inhibitory screen, cell viability, DU145 [3]: 97.5±10.1
- melting point: 201 to 203 °C
- primary growth inhibitory screen, cell viability, PC-3 [4]: 74.3±2.3
- primary growth inhibitory screen, cell viability, HeLa [5]: 70.1±4.5

Structure (SMILES): C[C@]12CC[C@@H]3c4cc(-c5nn(-c6ccc(Cl)cc6)cc5C=O)c(O)cc4CC[C@H]3[C@@H]1CC[C@@H]2O [Compound 8c]
- primary growth inhibitory screen, cell viability, MRC-5 [1]: ≥ 100±3.3
- IC50 [1]: 5.53 ± 1 µM
- primary growth inhibitory screen, cell viability, MCF-7 [2]: ≥ 100±5.3
- IC50 [2]: 5.34 ± 1 µM
- primary growth inhibitory screen, cell viability, DU145 [3]: ≥ 100±5.0
- IC50 [3]: 4.82 ± 1 µM
- melting point: > 190 °C (dec.)
- primary growth inhibitory screen, cell viability, PC-3 [4]: 94.8±4.0
- IC50 [4]: 5.08 ± 1 µM
- primary growth inhibitory screen, cell viability, HeLa [5]: 83.1±6.2
- IC50 [5]: 3.39 ± 1 µM

Structure (SMILES): CC(=O)O[C@H]1CC[C@H]2[C@@H]3CCc4cc(O)c(-c5nn(-c6ccc(C)cc6)cc5CO)cc4[C@H]3CC[C@]12C [Compound 10b]
- primary growth inhibitory screen, cell viability, MRC-5 [1]: 96.9±3.8
- primary growth inhibitory screen, cell viability, MCF-7 [2]: 87.6±0.7
- primary growth inhibitory screen, cell viability, DU145 [3]: ≥ 100±6.8
- melting point: 254 to 256 °C
- primary growth inhibitory screen, cell viability, PC-3 [4]: 88.0±5.6
- primary growth inhibitory screen, cell viability, HeLa [5]: 68.3±2.2

Structure (SMILES): C[C@]12CC[C@@H]3c4cc(-c5nn(-c6ccc(Cl)cc6)cc5CO)c(O)cc4CC[C@H]3[C@@H]1CC[C@@H]2O [Compound 11c]
- primary growth inhibitory screen, cell viability, MRC-5 [1]: ≥ 100±8.4
- primary growth inhibitory screen, cell viability, MCF-7 [2]: ≥ 100±0.7
- primary growth inhibitory screen, cell viability, DU145 [3]: 127.1±4.9
- melting point: 240 to 242 °C
- primary growth inhibitory screen, cell viability, PC-3 [4]: 87.1±3.8
- primary growth inhibitory screen, cell viability, HeLa [5]: 77.9±1.5

Structure (SMILES): O=Cc1cn(-c2ccc(Cl)cc2)nc1-c1cc2c(cc1O)CCCC2 [Compound 17c, 1′-(4″-Chlorophenyl)-3′-(3-hydroxy-5,6,7,8-tetrahydronaphthalen-2-yl)-1′H-pyrazole-4″-carbaldehyde]
- primary growth inhibitory screen, cell viability, MRC-5 [1]: ≥ 100±4.0
- effect on non-cancerous fibroblasts [1]: no or very mild effect
- IC50 [1]: 5.72 ± 1.1 µM
- primary growth inhibitory screen, cell viability, MCF-7 [2]: 77.5±4.6
- IC50 [2]: 4.12 ± 1 µM
- primary growth inhibitory screen, cell viability, DU145 [3]: 80.3±10.8
- IC50 [3]: > 7 µM
- melting point: 182 to 184 °C
- primary growth inhibitory screen, cell viability, PC-3 [4]: 61.9±2.8
- IC50 [4]: 4.39 ± 1 µM
- primary growth inhibitory screen, cell viability, HeLa [5]: ≥ 100±4.0
- IC50 [5]: 6.23 ± 1 µM

Structure (SMILES): CC(=O)O[C@H]1CC[C@H]2[C@@H]3CCc4cc5oc(=O)c6cn(-c7ccc(Cl)cc7)nc6c5cc4[C@H]3CC[C@]12C [Compound 9c]
- primary growth inhibitory screen, cell viability, MRC-5 [1]: 89.5±8.7
- primary growth inhibitory screen, cell viability, MCF-7 [2]: 91.1±3.1
- primary growth inhibitory screen, cell viability, DU145 [3]: ≥ 100±0.9
- melting point: 283 to 285 °C
- primary growth inhibitory screen, cell viability, PC-3 [4]: 94.1±4.2
- primary growth inhibitory screen, cell viability, HeLa [5]: 75.7±1.7

Structure (SMILES): CC(=O)c1cc2c(cc1O)CCCC2 [Compound 15, 3-Acetyl-5,6,7,8-tetrahydro-2-naphthol]
- primary growth inhibitory screen, cell viability, MRC-5 [1]: ≥ 100±3.7
- effect on non-cancerous fibroblasts [1]: no or very mild effect
- IC50 [1]: > 7 µM
- primary growth inhibitory screen, cell viability, MCF-7 [2]: ≥ 100±1.9
- IC50 [2]: > 7 µM
- primary growth inhibitory screen, cell viability, DU145 [3]: ≥ 100±6.7
- IC50 [3]: > 7 µM
- melting point: 70 to 72 °C
- primary growth inhibitory screen, cell viability, PC-3 [4]: ≥ 100±2.2
- IC50 [4]: > 7 µM
- primary growth inhibitory screen, cell viability, HeLa [5]: 53.8±8.3
- IC50 [5]: 3.6 ± 1.2 µM

Structure (SMILES): C[C@]12CC[C@@H]3c4cc(-c5nn(-c6ccccc6)cc5CO)c(O)cc4CC[C@H]3[C@@H]1CC[C@@H]2O [Compound 11a]
- primary growth inhibitory screen, cell viability, MRC-5 [1]: ≥ 100±8.2
- effect on non-cancerous fibroblasts [1]: no or very mild effect
- IC50 [1]: > 7 µM
- primary growth inhibitory screen, cell viability, MCF-7 [2]: 93.4±3.7
- IC50 [2]: 6.8 ± 1 µM
- primary growth inhibitory screen, cell viability, DU145 [3]: 98.2±5.4
- IC50 [3]: > 7 µM
- melting point: 141 to 143 °C
- primary growth inhibitory screen, cell viability, PC-3 [4]: 59.7±3.2
- IC50 [4]: 2.9 ± 1.3 µM
- primary growth inhibitory screen, cell viability, HeLa [5]: 75.4±1.1
- IC50 [5]: 4.3 ± 1 µM

Structure (SMILES): CC(=O)c1cc2c(cc1O)CC[C@@H]1[C@@H]2CC[C@]2(C)[C@@H](O)CC[C@@H]12 [Compound 5, 2-Acetyl-estra-1,3,5(10)-triene-3,17β-diol]
- primary growth inhibitory screen, cell viability, MRC-5 [1]: ≥ 100±7
- primary growth inhibitory screen, cell viability, MCF-7 [2]: 87.5
- primary growth inhibitory screen, cell viability, DU145 [3]: 100.6±6.5
- melting point: 189 to 191 °C
- primary growth inhibitory screen, cell viability, PC-3 [4]: 79.0±3.8
- primary growth inhibitory screen, cell viability, HeLa [5]: 99.6±3.5
